Measured values as given in ChEMBL document CHEMBL4020795, “One-pot microwave assisted stereoselective synthesis of novel dihydro-2'H-spiro[indene-2,1'-pyrrolo-[3,4-c]pyrrole]-tetraones and evaluation of their antimycobacterial activity and inhibition of AChE” (Bioorg Med Chem Lett, 2017).
≈ marks a conversion by molar mass, not a printed value.

Experiments:
[1] = tested on: Mycobacterium tuberculosis; assay: Antimicrobial activity against Mycobacterium tuberculosis H37Rv by Alamar blue assay; format: functional
Vero = assay: Cytotoxicity against monkey Vero cells assessed as decrease in cell viability after 72 hrs by MTT assay; format: cell-based; settings: Chlorocebus sabaeus
Acetylcholinesterase = Acetylcholinesterase (Homo sapiens, UniProt P22303); assay: Inhibition of AChE (unknown origin) using […] as substrate preincubated for 15 mins followed by substrate addition measured every minute by spectrophotometric analysis
[2] = tested on: Mycobacterium tuberculosis; assay: Potency index, ratio of cycloserine IC50 to test compound IC50 for Mycobacterium tuberculosis H37Rv; format: functional
[3] = tested on: Mycobacterium tuberculosis; assay: Potency index, ratio of pyrimethamine IC50 to test compound IC50 for Mycobacterium tuberculosis H37Rv; format: functional

Acetylcholinesterase, sequence (P22303 whole entry): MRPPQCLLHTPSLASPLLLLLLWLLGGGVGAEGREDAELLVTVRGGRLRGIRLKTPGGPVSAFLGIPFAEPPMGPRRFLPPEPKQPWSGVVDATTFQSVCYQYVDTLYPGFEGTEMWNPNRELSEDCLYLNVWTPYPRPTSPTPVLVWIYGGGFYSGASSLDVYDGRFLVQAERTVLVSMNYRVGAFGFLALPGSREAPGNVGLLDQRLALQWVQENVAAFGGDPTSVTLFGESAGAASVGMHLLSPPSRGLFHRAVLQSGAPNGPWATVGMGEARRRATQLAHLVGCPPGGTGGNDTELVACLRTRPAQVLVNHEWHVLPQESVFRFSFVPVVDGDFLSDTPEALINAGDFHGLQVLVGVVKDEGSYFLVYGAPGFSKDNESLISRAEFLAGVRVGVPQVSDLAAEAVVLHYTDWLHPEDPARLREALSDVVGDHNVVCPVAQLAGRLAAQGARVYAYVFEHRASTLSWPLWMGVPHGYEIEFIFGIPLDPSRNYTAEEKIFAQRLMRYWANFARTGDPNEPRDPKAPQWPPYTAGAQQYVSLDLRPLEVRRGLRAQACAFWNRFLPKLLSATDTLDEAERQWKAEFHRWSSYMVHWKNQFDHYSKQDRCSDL

SMILES | IC50 [1] [µM] | IC90 [1] [µM] | MIC [1] [µM] | IC50 (Vero) [µg/mL] | IC50 (Acetylcholinesterase) [µM] | Ratio IC50 [2] | Ratio IC50 [3]
Cc1ccc(N2C(=O)C3CN(C)C4(C(=O)c5ccccc5C4=O)C3C2=O)cc1 (stereo not given) | 40 | 71.9 | 100 (≈ 37.4 µg/mL) | > 6.25 | 7.34 | – | –
CN1CC2C(=O)N(c3ccc([N+](=O)[O-])cc3)C(=O)C2C12C(=O)c1ccccc1C2=O (stereo not given) | 47.2 | 66.5 | 100 (≈ 40.5 µg/mL) | > 6.25 | 6.6 | – | –
N[C@@H]1CONC1=O [CYCLOSERINE] | – | – | 25 (≈ 2.55 µg/mL) | > 6.25 | – | – | –
CN1CC2C(=O)N(Cc3ccccc3)C(=O)C2C12C(=O)c1ccccc1C2=O (stereo not given) | 55 | 96.4 | 100 (≈ 37.4 µg/mL) | > 6.25 | 41.2 | – | –
CN1CC2C(=O)N(C3CCCCC3)C(=O)C2C12C(=O)c1ccccc1C2=O (stereo not given) | 15.9 | 34.6 | 100 (≈ 36.6 µg/mL) | > 6.25 | 4.12 | – | –
CN1CC2C(=O)N(c3cccc(F)c3)C(=O)C2C12C(=O)c1ccccc1C2=O (stereo not given) | 28.6 | 47.7 | 50 (≈ 18.9 µg/mL) | > 6.25 | 80.1 | – | –
CN1CC2C(=O)N(c3ccccc3)C(=O)C2C12C(=O)c1ccccc1C2=O (stereo not given) | 13.2 | 25.9 | 50 (≈ 18 µg/mL) | > 6.25 | 69.8 | – | –
COc1ccccc1N1C(=O)C2CN(C)C3(C(=O)c4ccccc4C3=O)C2C1=O (stereo not given) | 28.3 | 46.5 | 50 (≈ 19.5 µg/mL) | > 6.25 | 11.1 | – | –
CN1CC2C(=O)N(c3ccc(F)cc3)C(=O)C2C12C(=O)c1ccccc1C2=O (stereo not given) | 2.17 | 7.86 | 50 (≈ 18.9 µg/mL) | > 6.25 | 50.1 | – | –
CN1CC2C(=O)N(c3ccc(Cl)cc3)C(=O)C2C12C(=O)c1ccccc1C2=O (stereo not given) | 1.3 | 5.3 | 25 (≈ 9.87 µg/mL) | > 6.25 | 27.9 | 12 | 37
CN1CC2C(=O)N(c3ccc(Br)cc3)C(=O)C2C12C(=O)c1ccccc1C2=O (stereo not given) | 11.1 | 22 | 50 (≈ 22 µg/mL) | > 6.25 | 73.3 | – | –
CC(C)c1ccc(N2C(=O)C3CN(C)C4(C(=O)c5ccccc5C4=O)C3C2=O)cc1 (stereo not given) | 28.5 | 52.4 | 100 (≈ 40.2 µg/mL) | > 6.25 | 12.2 | – | –
NCC[C@H](O)C(=O)N[C@@H]1C[C@H](N)[C@@H](O[C@H]2O[C@H](CN)[C@@H](O)[C@H](O)[C@H]2O)[C@H](O)[C@H]1O[C@H]1O[C@H](CO)[C@@H](O)[C@H](N)[C@H]1O [AMIKACIN] | – | 0.08 | 0.16 (≈ 0.0937 µg/mL) | > 6.25 | – | – | –
COc1ccc(N2C(=O)C3CN(C)C4(C(=O)c5ccccc5C4=O)C3C2=O)cc1 (stereo not given) | 17.2 | 35.5 | 50 (≈ 19.5 µg/mL) | > 6.25 | 0.78 | – | –
CC[C@@H](CO)NCCN[C@@H](CC)CO [ETHAMBUTOL] | < 1.56 | – | 12.5 (≈ 2.55 µg/mL) | > 6.25 | – | – | –
NNC(=O)c1ccncc1 [ISONIAZID] | – | 0.29 | 0.31 (≈ 0.0425 µg/mL) | > 6.25 | – | – | –
CCc1nc(N)nc(N)c1-c1ccc(Cl)cc1 [PYRIMETHAMINE] | – | – | 100 (≈ 24.9 µg/mL) | > 6.25 | – | – | –
CCc1ccc(N2C(=O)C3CN(C)C4(C(=O)c5ccccc5C4=O)C3C2=O)cc1 (stereo not given) | 21.9 | 47.9 | 50 (≈ 19.4 µg/mL) | > 6.25 | 44.6 | – | –
CN1C(=O)C2CN(C)C3(C(=O)c4ccccc4C3=O)C2C1=O (stereo not given) | 22.9 | 34.6 | 50 (≈ 14.9 µg/mL) | > 6.25 | 2.1 | – | –
